How the values were obtained:
C-jun = C-jun expression in HT29 cells, western blot; assay type: cell-based, human; conditions: 10 and 20 μM, 24 hr
Method: (§1) The effect of paroxetine and sertraline on the expression of bcl-2 and C-jun was evaluated in human colon HT29 cell-line 24 hr after drug administration, using western blot analysis for C-jun and bcl-2 and specific antibodies.

[1] = system: mouse splenocytes (basal); assay: Basal mouse splenocyte viability, alamar blue; assay type: cell-based; conditions: 2.5-10 μM, 48 hr
Method: Mouse splenocytes were isolated from C57b1 healthy female mice. Cells (10,000/well) were tested under basal and ConA stimulation. Cells were treated with vehicle, dexamethasone or antidepressants (2.5-10 μM). Viability was assessed 48 hr later using alamar blue staining. (Reagents were manufactured by Wildflower, Santa Fe, N. Mex., USA.) Alamar blue assay was performed as in Nociari et al (1998).

Stat3 = Stat3 expression in human PHA activated lymphocytes, Western blot; assay type: cell-based; conditions: 5 μM, PHA 15 μM
Method: Total protein lysates from human lymphocyte culture were prepared by agitation with lysis buffer (20 mM Tris pH 7.5, 150 mM NaCl, 1 mM EDTA, 1% Nonidet P-40, 0.5% sodium deoxycholate, and 2 mM Na2VO4) for 1 h at 4° C. The proteins were cleared by centrifugation at 14,000×g for 20 min at 4° C. Protein concentration was determined using BCA kit (Pierce, Ill., USA). For Western blot analysis, 30 μg-protein from each sample were loaded in 7.5% SDS-PAGE. Electroblotted proteins were detected using specific anti COX-2 polyclonal antibody (Cayman chemical company, Michigan, USA) or an ti-Stat3 monoclonal antibody (Transduction Laboratories Lexington UK). Bound antibodies were visualized using chemiluminescence reaction.

Cyclooxygenase-2 (Cox-2) = assay: Cox-2 expression in ConA stimulated mouse splenocytes, Western blot; assay type: cell-based; conditions: 5 μM, normalized to actin
Method: Determination was performed using Western blot analysis and quantitative dencitometry of blot.
For each sample 2×10^7 cells were used. Cells were lysed, and equal amounts of protein was fractionated on polyacrylamide gel and then transferred to PVDF membrane. The amount of the protein was detected by immuno-blotting with […] anti-Cox-2 anti body (Murine anti COX2 Polyclonal Cat. 160126, Ann Arbor, Mich., USA. 2nd antibody conjugated to horseradish peroxidase was used and visualized with chemiluminescent Kit (Pierce, Rockford, Ill., USA) on film. Quantification of blot was performed using a densitometry apparatus (VersaDoc™ imaging system, BioRad, USA) and levels were normalized to actin.

[2] = system: Con-A activated splenocytes; assay: cells; conditions: Mus musculus, Splenocyte, read-out: inhibition of viability, splenocytes from naïve animals
Method: LPS (manufactured by Sigma St. Louis Mo., USA, cat no L2880) was administered at 100 μg/mouse×2, on day 7 and day 14).

bcl-2 = bcl-2 expression in HT29 cells, western blot; assay type: cell-based, human; conditions: 10 and 20 μM, 24 hr
Method: as §1

[3] = system: DSS-induced acute colitis; assay: Rat model of DSS-induced acute colitis; assay type: in vivo; conditions: for number of days with significant DAI difference vs control: 9 days in water-treated DSS group
Method: Potential anti-IBD effect of two different doses of paroxetine, namely 0.2% and 0.4% was assessed in the rat model of DSS-induced acute colitis (DSS—dextran sulfate sodium). The use of DSS is a well-defined method for the induction of colitis' in animals. DSS can be controlled more precisely regarding molecular weight distribution, grade of sulfate incorporation and impurities than other agents typically used to achieve the same clinical end-point. This reagent model is suitable for screening of new drugs as it uses small animals, the oral administration of the agent is convenient to use in large groups of animals and the induced colitis responds to treatment with conventional drugs (see for example Axelsson et al, 1993).
Paroxetine (oral suspension, protected from light at or below 25° C.) was administered at two respective doses of 7.5 and 15 mg/kg by one daily repeated oral gavage (PO) for 16 days. Colitis induction commenced two days following initiation of treatment by continuous exposure ad libitum of the test animals to 3% DSS (36-50 kDa) in their drinking water (chlorinated and acidified, pH range of 5.1-5.9, freshly prepared on even test days). […] Two additional paroxetine-treated non-DSS induced groups were likewise treated with the same selected does to detect any unforeseen paroxetine related effects. Test groups comprised either n=8 (DSS induced) or n=4 (non-DSS induced) male Sprague Dawley (SD) rats (healthy, young […] weeks of age, total of 36 animals).
Evaluation of anti-IBD effect was based on the following […] parameters: a. Daily clinical scoring of the characteristic experimental colitis signs, consisting of body weight loss, altered fecal consistency and hematochezia and expressed as Disease Activity Index (DAI); b. Body weight determination; c. Colon length; d. Macroscopic colon lesions scores noted at necropsy; and e. microscopic colon lesions score.
The histological scoring system for the 3% DSS-induced colonic inflammation is shown below in Tables 1 and 2:
Final data evaluation was carried out by statistical analysis of differences between mean group values for each of the above listed parameters in the DSS-induced groups vs. respective mean values in the water-treated non-DSS induced group.

[4] = system: Human Colon carcinoma (HT29) cell-line; assay: Viability of human colon carcinoma HT29 cells, alamar blue and neutral red; assay type: cell-based; conditions: 10-30 μM, FIG. 14
Method: Human Colon carcinoma (HT29) cell-line (ATCC USA) was maintained in RPMI medium supplemented with 10% fetal calf serum and penicillin (100 u/ml), streptomycin (100 mcg/ml), nystatin (12.5 u/ml), L-glutamine (2 mM). Confluent cultures were washed with phosphate-buffered saline (PBS), detached with trypsine (0.25%), centrifuged, and subcultured in 96-well microtiter test plates. Cells were exposed to vehicle or to psychotropic drugs. Cell viability was measured 24 hours later using the alamar blue and neutral red methods. Results were expressed as % of controls (vehicle treated cells). Each sample is the Mean+/−[…] of 4 determinations.

human PBMC = assay: Viability of LPS-exposed human PBMC, alamar blue; assay type: cell-based; conditions: LPS 2 ug/well, 2.5-30 μM, 48 hours, both subjects
Method: Human PBMC were isolated from whole blood of 2 healthy volunteers (A and B subjects). Cells (2×10^6/ml) were exposed to LPS (2 ug/well) and treated with either the vehicle, or with paroxetine, sertraline, clomipramine and trifluoperazine (2.5-30 μM).

Fc1ccc([C@@H]2CCNC[C@H]2COc2ccc3c(c2)OCO3)cc1 [paroxetine]
expression of C-jun (C-jun): stimulation | basal splenocyte proliferation [1]: dose dependent decrease | PHA-induced increase in Stat3 expression (Stat3): antagonized | reduction of Cox-2 expression (Cyclooxygenase-2 (Cox-2)): 22.2% | cytotoxicity at 5 µM [2]: 10% | expression of bcl-2 (bcl-2): inhibition | mean body weight vs respective control ([3]; both doses (7.5 and 15 mg/kg PO), DSS-induced): did not reach statistical significance | mean colon length vs water-treated non-DSS induced group ([3]; both doses, p<0.05): significantly shorter | medians of histopathological scores (lateral and in-depth extension) ([3]; both doses, differences not statistically significant): lower than for the control group | day of peak DAI score ([3]; both paroxetine-treated DSS-induced groups): 10 days | mean macroscopic colon score vs control ([3]; high dose): did not significantly differ | number of days with significant DAI difference vs control ([3]; high paroxetine dose): 6 days | mortality ([3]; high-dose (15 mg/kg PO) DSS-induced group): No mortality | mean macroscopic colon score vs control ([3]; low dose, p<0.01): significantly higher | number of days with significant DAI difference vs control ([3]; low paroxetine dose): 5 days | overall anti-IBD effect ([3]; oral suspension, 7.5 and 15 mg/kg): trend of anti-IBD effect with a dose-response | mortality ([3]; the dose paroxetine-treated DSS-induced group, n=8, PO daily 16 days): one | inhibition of cell viability [4]: 64% | order of potency, decrease in cell viability (human PBMC): sertraline>paroxetine>trifluoperazine>/=clomipramine

From patent publication US20080318931A1, “Treatment of Disorders and Diseases of the Colon” (priority 2004, published 2008)
